The nature of this data set: Non-covalent ring closure: intramolecular phenol OH...acceptor H-bond (folding of AD 2-mers; acceptor is phosphine oxide, pyridine or pyridine N-oxide). EMf = Kfold/K(A.D); Kfold inferred from NMR dilution Kobs(AD.AD) versus Kobs(AA.DD). To be noted: the molecule shown is the open-chain precursor, toluene-d8 (C7-PO in CDCl3), 25.0 °C.

On to `CCCCP(=O)(CCCC)c1cccc(C#Cc2cc(C#Cc3cccc(O)c3)cc(OCC[C@@H](C)CCC=C(C)C)c2)c1` [C7-PO (44), CDCl3], for which the ring closure, effective molarity (17-membered ring) worked out at 0 mM.

For `CCCCC(CC)COc1ccc(N(Cc2ccc(O)cc2)Cc2cc([N+](=O)[O-])ccc2OCC(CC)CCCC)cc1CN(Cc1ccncc1)c1ccc(OCC(CC)CCCC)c(C2OCCO2)c1` (stereo not shown) [C8-N (21)], the ring closure, effective molarity (18-membered ring) came to 0 mM.

In the case of `CCCCC(CC)COc1ccc(N(Cc2ccc(O)cc2)Cc2cc([N+](=O)[O-])ccc2OCC(CC)CCCC)cc1CN(Cc1cc[n+]([O-])cc1)c1ccc(OCC(CC)CCCC)c(C2OCCO2)c1` (stereo not shown) [C8-NO (13)], the ring closure, effective molarity (19-membered ring) came out at 0 mM.

Regarding `CCCCC(CC)COc1ccc(N(Cc2ccc(O)cc2)Cc2cc([N+](=O)[O-])ccc2OCC(CC)CCCC)cc1CN(Cc1ccc(OCP(=O)(C(C)(C)C)C(C)(C)C)cc1)c1ccc(OCC(CC)CCCC)c(C2OCCO2)c1` (stereo not shown) [C8-PO (16)], the ring closure, effective molarity (22-membered ring) worked out at 7 mM.

Take `CCCCP(=O)(CCCC)c1ccc(C[C@@H](CCSCC[C@H](CCSC(C)=O)Cc2ccc(O)cc2)CCSC(C)(C)C)cc1` [C9-PO (33)]: the ring closure, effective molarity (21-membered ring) turned out to be 7 mM.

The compound `CCCCC(CC)COc1cc(CN(Cc2ccccc2OC)c2ccc(O)cc2)cc(CN(Cc2ccccc2OC)c2ccc(OCP(=O)(C(C)(C)C)C(C)(C)C)cc2)c1` (stereo not shown) [N7-PO (29)] registered a ring closure, effective molarity (21-membered ring) of 15 mM.

`CCCCC(CC)COc1cc(CN(Cc2ccccc2OC)c2ccc(OCP(=O)(C(C)(C)C)C(C)(C)C)cc2)c(OCC(CC)CCCC)cc1CN(Cc1ccccc1OC)c1ccc(O)cc1` (stereo not shown) [N8-PO (26)]: for the setting “22-membered ring”, the ring closure, effective molarity is 3 mM.

For the origin of these results see publication PMC5469522.
